Experimental data published in publication PMC3155282 (ACS Medicinal Chemistry Letters, 2011).

Columns and labels:
CYP3A4 [1] = target: T1, CYP3A4 (Homo sapiens, UniProt P08684); conditions: cited from earlier work
cytochrome P450s = conditions: cited from earlier work
CYP2D6 and 2J2 = conditions: catalyzed by CYP2D6 and 2J2; cited from earlier work
CYP2D6 = CYP2D6 (Homo sapiens, UniProt P10635); conditions: recombinant enzyme
[2] = tested on: others of recombinant CYP1A2, 2B6, 2C8, 2C9, 2C19, 2D6 and 3A4; conditions: recombinant enzyme
CYP3A4 [3] = target: T1, CYP3A4; conditions: recombinant enzyme
CYP2C8 = target: T2, CYP2C8 (Homo sapiens, UniProt P10632); test: P450 isoform phenotyping assay, parent compound depletion, recombinant CYP2C8; type: in vitro ADME; conditions: recombinant CYP2C8, 1 µM compound
T2 sequence (P10632 1-490): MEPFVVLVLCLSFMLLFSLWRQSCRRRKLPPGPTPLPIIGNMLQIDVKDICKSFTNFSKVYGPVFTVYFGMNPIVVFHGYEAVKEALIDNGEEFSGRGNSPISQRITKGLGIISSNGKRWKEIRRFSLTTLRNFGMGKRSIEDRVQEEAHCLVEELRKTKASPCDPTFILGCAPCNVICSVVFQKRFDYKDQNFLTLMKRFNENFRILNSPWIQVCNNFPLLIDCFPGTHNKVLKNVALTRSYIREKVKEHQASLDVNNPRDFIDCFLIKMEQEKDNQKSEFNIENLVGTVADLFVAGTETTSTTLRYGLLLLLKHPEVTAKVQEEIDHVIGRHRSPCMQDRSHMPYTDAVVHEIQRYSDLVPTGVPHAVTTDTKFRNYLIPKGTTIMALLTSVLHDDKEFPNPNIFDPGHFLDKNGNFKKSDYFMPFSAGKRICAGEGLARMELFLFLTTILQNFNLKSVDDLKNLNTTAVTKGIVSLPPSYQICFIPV

CYP2D6, sequence (P10635 whole entry): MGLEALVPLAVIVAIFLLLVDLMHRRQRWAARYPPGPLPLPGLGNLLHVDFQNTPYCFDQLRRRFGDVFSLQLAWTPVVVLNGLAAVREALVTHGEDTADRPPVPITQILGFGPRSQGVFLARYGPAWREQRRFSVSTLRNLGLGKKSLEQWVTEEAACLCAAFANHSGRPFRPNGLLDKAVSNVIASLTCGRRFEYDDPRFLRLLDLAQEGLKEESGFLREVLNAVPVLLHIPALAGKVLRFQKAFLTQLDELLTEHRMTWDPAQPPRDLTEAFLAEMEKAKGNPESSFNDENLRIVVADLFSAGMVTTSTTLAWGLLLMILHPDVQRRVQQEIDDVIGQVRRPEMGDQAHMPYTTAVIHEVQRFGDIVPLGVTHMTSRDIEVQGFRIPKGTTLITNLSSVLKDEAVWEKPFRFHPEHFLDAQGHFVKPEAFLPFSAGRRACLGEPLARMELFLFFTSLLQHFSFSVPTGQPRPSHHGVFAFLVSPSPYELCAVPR
T1 sequence (P08684 whole entry): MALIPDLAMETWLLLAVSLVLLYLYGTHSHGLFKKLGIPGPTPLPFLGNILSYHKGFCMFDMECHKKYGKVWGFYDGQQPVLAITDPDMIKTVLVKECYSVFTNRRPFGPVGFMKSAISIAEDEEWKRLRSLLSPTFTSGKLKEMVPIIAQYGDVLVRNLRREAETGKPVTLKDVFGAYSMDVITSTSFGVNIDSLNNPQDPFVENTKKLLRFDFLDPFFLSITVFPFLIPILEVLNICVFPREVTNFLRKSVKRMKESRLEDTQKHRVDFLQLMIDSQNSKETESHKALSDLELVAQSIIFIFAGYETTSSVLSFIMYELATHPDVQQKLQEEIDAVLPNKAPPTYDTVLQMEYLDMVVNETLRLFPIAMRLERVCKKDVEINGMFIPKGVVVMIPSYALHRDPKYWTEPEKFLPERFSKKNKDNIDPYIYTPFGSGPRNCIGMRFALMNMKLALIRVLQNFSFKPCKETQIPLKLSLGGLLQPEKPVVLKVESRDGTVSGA

| Compound | conversion from astemizole to benzimidazole hydroxylated metabolite (CYP3A4 [1]) [%] | N-dealkylation (major or minor pathway) (cytochrome P450s) | conversion from astemizole to O-desmethylastemizole (CYP2D6 and 2J2) [%] | half-life (t1/2) of parent compound depletion from phenotyping assay, 2D6 (CYP2D6) | half-life (t1/2) of parent compound depletion from phenotyping assay, others [2] | half-life (t1/2) of parent compound depletion from phenotyping assay, 3A4 (CYP3A4 [3]) | half-life (t1/2) of parent compound depletion from phenotyping assay, 2C8 (CYP2C8) | contribution of CYP2D6 to metabolism (CYP2D6) |
| --- | --- | --- | --- | --- | --- | --- | --- | --- |
| COc1ccc(CCN2CCC(Nc3nc4ccccc4n3Cc3ccc(F)cc3)CC2)cc1 [astemizole] | 25 | minor | 67 | 3A4 (1.5 m), 2D6 (4.0 m), others (>60 m) | 3A4 (1.5 m), 2D6 (4.0 m), others (>60 m) | 3A4 (1.5 m), 2D6 (4.0 m), others (>60 m) |  |  |
| CN1CCC(N(Cc2ccccc2)c2ccccc2)CC1 [bamipine] |  | major |  |  |  |  |  |  |
| O=C(CCCN1CCC(n2c(O)nc3ccccc32)CC1)c1ccc(F)cc1 [benperidol] |  | major |  | 3A4 (3.3 m), 2D6 (10.4 m), 2C8 (43.8 m), others (>60 m) | 3A4 (3.3 m), 2D6 (10.4 m), 2C8 (43.8 m), others (>60 m) | 3A4 (3.3 m), 2D6 (10.4 m), 2C8 (43.8 m), others (>60 m) | 3A4 (3.3 m), 2D6 (10.4 m), 2C8 (43.8 m), others (>60 m) |  |
| COc1cc(N)c(Cl)cc1C(=O)NC1CCN(CCCOc2ccc(F)cc2)CC1OC (centres unmarked) [cisapride] |  | major |  |  | 3A4 (<5 m), others (>60 m) |  |  |  |
| COc1cc(N)c(Cl)cc1C(=O)NC1CCN(Cc2ccccc2)CC1 [clebopride] |  | major |  |  | 3A4 (<5 m), others (>60 m) | 3A4 (<5 m), others (>60 m) |  |  |
| O=C(NC1CCN(CCc2c[nH]c3ccccc23)CC1)c1ccccc1 [indoramin] |  | minor |  | 2D6 (<5 m), 3A4 (16.0 m), others (>60 m) | 2D6 (<5 m), 3A4 (16.0 m), others (>60 m) | 2D6 (<5 m), 3A4 (16.0 m), others (>60 m) |  | contributed significantly |
| O=c1[nH]c2ccccc2n1C1CCN(CCCC(c2ccc(F)cc2)c2ccc(F)cc2)CC1 [pimozide] |  | major |  | 3A4 (2.7 m), 2D6 (3.2 m), others (>60 m) | 3A4 (2.7 m), 2D6 (3.2 m), others (>60 m) | 3A4 (2.7 m), 2D6 (3.2 m), others (>60 m) |  |  |
| CN(c1nc2ccccc2s1)C1CCN(CC(O)COc2ccc(F)cc2)CC1 (centres unmarked) [sabeluzole] |  | minor |  | 2D6 (1.5 m), 3A4 (<5.0 m), others (>60 m) | 2D6 (1.5 m), 3A4 (<5.0 m), others (>60 m) | 2D6 (1.5 m), 3A4 (<5.0 m), others (>60 m) |  | contributed significantly |
| O=C(CCCN1CCC(n2c(=S)[nH]c3ccccc32)CC1)c1ccc(F)cc1 [timiperone] |  | major |  |  |  |  |  |  |
